Experiment [1] relates to MOLM13 cells. The experiment in a line: Growth inhibition of CDK9-positive cell line MOLM13 in vitro (CCK8/MTT assay). Format: cell-based, human. Conditions: Homo sapiens. (In general: Tetrazolium dyes change colour on reduction, which living cells bring about.)
Experiment [2] concerns the target T1, CDK9/CyclinK kinase (Homo sapiens, UniProt P50750).
T1 construct: purchased Promega Corporation V4105
The experiment in a line: CDK9 protein kinase activity, ADP-Glo CDK9/CyclinK kinase detection kit. Format: biochemical. The conditions noted are these: read-out: IC50 of the compound for inhibiting CDK9 protein kinase activity, CDK9/CyclinK kinase. As for the experimental part: Measurement of CDK9 Protein Kinase Activity
The present compound was dissolved in DMSO (Sigma Aldrich), and the initial concentration of the compound was 1000 nM. A two-fold serial dilution was carried out. The specific operation of CDK9 kinase activity determination was carried out according to the ADP-Go™ CDK9/CyclinK kinase detection experimental procedure. […] Each test sample was tested in duplicate, and the test was repeated once. The inhibitory activity (IC50) of the compound on CDK9 protein kinase was calculated from the dose-inhibition curve of the compound.

Where [3] appears, read: MOLM-13, MOLM13 cells, cultured 3 to 6 days, CCK8, read-out: IC50 of the compound for inhibiting cell growth, MOLM13 cells.
Setting [4] is: MOLM-13, read-out: IC50 of the compound for inhibiting cell growth, MOLM13 cells.

Each structure is given as a SMILES string. Read-outs that look alike come from different tables or passages of the source.

T1 sequence (P50750 whole entry): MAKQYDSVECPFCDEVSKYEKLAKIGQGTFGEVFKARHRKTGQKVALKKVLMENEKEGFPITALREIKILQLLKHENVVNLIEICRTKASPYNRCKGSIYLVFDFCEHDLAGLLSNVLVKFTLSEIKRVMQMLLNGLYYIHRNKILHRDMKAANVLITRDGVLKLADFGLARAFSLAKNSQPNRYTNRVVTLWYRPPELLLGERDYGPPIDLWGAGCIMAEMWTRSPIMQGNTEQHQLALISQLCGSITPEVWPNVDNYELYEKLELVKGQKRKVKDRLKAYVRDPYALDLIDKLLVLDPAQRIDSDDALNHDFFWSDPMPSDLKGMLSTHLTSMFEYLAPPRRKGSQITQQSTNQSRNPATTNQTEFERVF
T1 sequence (O75909 whole entry partner): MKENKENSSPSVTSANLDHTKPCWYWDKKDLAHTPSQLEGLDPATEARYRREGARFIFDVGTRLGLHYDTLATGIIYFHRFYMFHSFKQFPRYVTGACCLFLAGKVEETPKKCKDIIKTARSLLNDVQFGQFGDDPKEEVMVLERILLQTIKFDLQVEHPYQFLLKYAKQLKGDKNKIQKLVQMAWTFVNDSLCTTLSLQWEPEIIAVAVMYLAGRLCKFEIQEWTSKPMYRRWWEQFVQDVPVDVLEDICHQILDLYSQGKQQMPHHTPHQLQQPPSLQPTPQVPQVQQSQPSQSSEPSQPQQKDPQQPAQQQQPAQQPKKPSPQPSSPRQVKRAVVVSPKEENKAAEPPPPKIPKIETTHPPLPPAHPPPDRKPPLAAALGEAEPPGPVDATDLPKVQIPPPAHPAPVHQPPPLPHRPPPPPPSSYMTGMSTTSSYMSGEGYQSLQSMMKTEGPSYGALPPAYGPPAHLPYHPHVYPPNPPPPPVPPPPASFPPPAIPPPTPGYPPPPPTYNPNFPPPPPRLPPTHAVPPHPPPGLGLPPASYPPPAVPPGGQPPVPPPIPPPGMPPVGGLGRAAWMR

As for `Cc1cc(Nc2ncc(Cl)c(-n3cc(C(N)=O)c4ccccc43)n2)ccc1N1CCNCC1` [Compound 42, 1-[5-chloro-2-(3-methyl-4-piperazin-1-yl-phenylamino)-pyrimidin-4-yl]-1H-indole-3-carboxamide], the IC50 was < 1 nM in experiment [1] (setting [3]) and 1 to 10 nM in experiment [2].

For `NC(=O)c1cn(-c2nc(Nc3cccc(N4CCN(C(=O)N5CCOCC5)CC4)c3)ncc2F)c2ccccc12` [Compound 167, 1-(5-fluoro-2-{3-[4-(morpholin-4-carbonyl)-piperazin-1-yl]-phenylamino}-pyrimidin-4-yl)-1H-indole-3-carboxamide], the IC50 in experiment [1] (setting [3]) and in experiment [2] was < 1 nM each time.

Consider `CN1CCN(c2cccc(Nc3ncc(F)c(-n4cc(C(N)=O)c5ccccc54)n3)c2)CC1` [Compound 115, 1-{5-fluoro-2-[3-(4-methyl-piperazin-1-yl)-phenylamino]-pyrimidin-4-yl}-1H-indole-3-carboxamide], for which the IC50 in experiment [1] (setting [4]) and in experiment [2] was < 1 nM throughout.

For the compound `Cc1cc(Nc2ncc(F)c(-n3cc(C(N)=O)c4ccccc43)n2)ccc1N1CCN(C)CC1` [Compound 55, 1-{5-fluoro-2-[3-methyl-4-(4-methyl-piperazin-1-yl)-phenylamino]-pyrimidin-4-yl}-1H-indole-3-carboxamide], the values for the IC50 in experiment [1] (setting [3]) and in experiment [2] were < 1 nM and 1 to 10 nM, respectively.

As for `Cc1cc(Nc2ncc(Cl)c(-n3cc(C(N)=O)c4ccccc43)n2)ccc1N(C)CCN(C)C` [Compound 89, 1-(5-chloro-2-{4-[(2-dimethylamino-ethyl)-methyl-amino]-3-methyl-phenylamino}-pyrimidin-4-yl)-1H-indole-3-carboxamide], the IC50 in experiment [1] (setting [3]) was < 1 nM; in experiment [2], 10 to 100 nM.

As to `Cc1cc(Nc2ncc(Cl)c(-n3cc(C(N)=O)c4ccccc43)n2)ccc1N1CCN(C)CC1` [Compound 56, 1-{5-chloro-2-[3-methyl-4-(4-methyl-piperazin-1-yl)-phenylamino]-pyrimidin-4-yl}-1H-indole-3-carboxamide], the figures for the IC50 in experiment [1] (setting [3]) and in experiment [2] were < 1 nM and 1 to 10 nM, respectively.

In the case of `Cc1cc(Nc2ncc(F)c(-n3cc(C(N)=O)c4ccccc43)n2)ccc1N(C)CCN(C)C` [Compound 88, 1-(2-{4-[(2-dimethylamino-ethyl)-methyl-amino]-3-methyl-phenylamino}-5-fluoro-pyrimidin-4-yl)-1H-indole-3-carboxamide], the IC50 in experiment [1] (setting [3]) is < 1 nM; in experiment [2] it was 10 to 100 nM.

Consider `CCN1CCN(c2cccc(Nc3ncc(F)c(-n4cc(C(N)=O)c5cc(O)ccc54)n3)c2)CC1` [Compound 163, 1-{2-[3-(4-ethyl-piperazin-1-yl)-phenylamino]-5-fluoro-pyrimidin-4-yl}-5-hydroxy-1H-indole-3-carboxamide], for which the IC50 in experiment [1] (setting [3]) and in experiment [2] was < 1 nM in each case.

For the compound `NC(=O)c1cn(-c2nc(Nc3ccc(N4CCNCC4)c(F)c3)ncc2F)c2ccccc12` [Compound 41, 1-[5-fluoro-2-(3-fluoro-4-piperazin-1-yl-phenylamino)-pyrimidin-4-yl]-1H-indole-3-carboxamide], in experiment [1] (setting [3]), the IC50 was in the range of 1 to 10 nM.

With `NC(=O)c1cn(-c2ccnc(Nc3ccc(OCCN4CCNCC4)cc3)n2)c2ccccc12` [Compound 22, 1-(2-{4-[2-(4-piperazin-1-yl)-ethoxy]-phenylamino]-pyrimidin-4-yl}-1H-indole-3-carboxamide], the IC50 in experiment [1] (setting [3]) was in the range of 10 to 100 nM.

Take `CN1CCN(CCOc2ccc(Nc3nccc(-n4cc(C(N)=O)c5ccccc54)n3)cc2)CC1` [Compound 18, 1-(2-{4-[2-(4-methyl-piperazin-1-yl)-ethoxy]-phenylamino}-pyrimidin-4-yl)-1H-indole-3-carboxamide]: the IC50 in experiment [1] (setting [4]) is 10 to 100 nM.

For `CCC(C)N1CCN(c2cccc(Nc3ncc(F)c(-n4cc(C(N)=O)c5ccccc54)n3)c2)CC1` (stereo not drawn) [Compound 145, 1-{2-[3-(4-sec-butyl-piperazin-1-yl)-phenylamino]-5-fluoro-pyrimidin-4-yl}-1H-indole-3-carboxamide], the IC50 in experiment [1] (setting [3]) was in the range of 10 to 100 nM.

For the compound `Cc1cc(Nc2ncc(F)c(-n3cc(C(N)=O)c4ccccc43)n2)ccc1N1CCNCC1` [Compound 39, 1-[5-fluoro-2-(3-methyl-4-piperazin-1-yl-phenylamino)-pyrimidin-4-yl]-1H-indole-3-carboxamide], the IC50 in experiment [1] (setting [4]) was < 1 nM; in experiment [2], 1 to 10 nM.

As to `CCN1CCN(c2cccc(Nc3ncc(F)c(-n4cc(C(N)=O)c5cc(N)ccc54)n3)c2)CC1` [Compound 162, 5-amino-1-{2-[3-(4-ethyl-piperazin-1-yl)-phenylamino]-5-fluoro-pyrimidin-4-yl}-1H-indole-3-carboxamide], the IC50 in experiment [1] (setting [3]) lay within 1 to 10 nM.

With `CNC(=O)c1cn(-c2ccnc(Nc3ccc(N4CCNCC4)cc3)n2)c2ccccc12` [Compound 101, 1-[2-(4-piperazin-1-yl-phenylamino)-pyrimidin-4-yl]-1H-indole-3-carboxmethylamide], the IC50 in experiment [1] (setting [3]) was 100 to 1000 nM.

On to `NC(=O)c1cn(-c2ccnc(Nc3ccc(NC4CCNCC4)cc3)n2)c2ccccc12` [Compound 12, 1-{2-[4-(piperidin-4-amino)-phenylamino]-pyrimidin-4-yl}-1H-indole-3-carboxamide], for which the IC50 in experiment [1] (setting [3]) is 10 to 100 nM.

`NC(=O)c1cn(-c2ccnc(Nc3ccc(OCCN4CCCC4)cc3)n2)c2ccccc12` [Compound 20, 1-{2-[4-(2-pyrrolidin-1-yl-ethoxy)-phenylamino]-pyrimidin-4-yl}-1H-indole-3-carboxamide]: the IC50 in experiment [1] (setting [3]) lay within 10 to 100 nM.

`COc1ccc2c(c1)c(C(N)=O)cn2-c1nc(Nc2cccc(N3CCN(C4CCOCC4)CC3)c2)ncc1F` [Compound 149, 1-(5-fluoro-2-{3-[4-(tetrahydro-pyran-4-yl)-piperazin-1-yl]-phenylamino}-pyrimidin-4-yl)-5-methoxy-1H-indole-3-carboxamide]: in experiment [1] (setting [3]), the IC50 fell in the range of 1 to 10 nM.

Turning to `CN1CCCN(c2ccc(Nc3nccc(-n4cc(C(N)=O)c5ccccc54)n3)cc2)CC1` [Compound 69, 1-{2-[4-(4-methyl-[1,4]homopiperazin-1-yl)-phenylamino]-pyrimidin-4-yl}-1H-indole-3-carboxamide], the IC50 in experiment [1] (setting [3]) fell in the range of 1 to 10 nM.

For the compound `CN1CCN(c2cc(Nc3ncc(Cl)c(-n4cc(C(N)=O)c5ccccc54)n3)ccc2Cl)CC1` [Compound 120, 1-{5-chloro-2-[4-chloro-3-(4-methyl-piperazin-1-yl)-phenylamino]-pyrimidin-4-yl}-1H-indole-3-carboxamide], the IC50 in experiment [1] (setting [3]) is 10 to 100 nM.

Take `NC(=O)c1cn(-c2nc(Nc3ccc(N4CCNCC4)c(F)c3)ncc2Cl)c2ccccc12` [Compound 44, 1-[5-chloro-2-(3-fluoro-4-piperazin-1-yl-phenylamino)-pyrimidin-4-yl]-1H-indole-3-carboxamide]: the IC50 in experiment [1] (setting [3]) is 1 to 10 nM.

Source of the values: US20210101881A1 (Ancureall Pharmaceutical (Shanghai) Co., Ltd., priority 2018, published 2021).
